Data published in US20070021509A1, “Phosphate transport inhibitors” (priority 2001, published 2007).

test system: glucose uptake into isolated rabbit intestinal rings; experiment: Ex vivo glucose uptake into isolated rabbit intestinal rings; format: cell-based; design: concentration or dose not given beside the values; settings: Table 14
Method: For the ex vivo assay, ^33P uptake into isolated rabbit intestinal rings was measured using a modification of the method described by Crane and Mandelstam [Robert K. Crane and Paul Mandelstam “The active transport of sugars by various preparations of hamster intestine” Biochim. Biophys. Acta 45: 460-476, 1960; the contents of which are incorporated herein by reference]. Male New Zealand rabbits 2-3 kg in weight were aeuthinized by an i.v. injection of Fatal Pluse®. A midline laparotomy was performed and the duodenum from the pyloric junction to the ligament of Trietz isolated and excised. Segments of bowel were everted, cut into 2-4 mm ring-like pieces and placed into a modified Hepes-Buffered Ringer's solution in which Na^+ had been iso-osmotically replaced with N-methyl-D-glucamine. […] […] Tissues were then solublized by digesting them in a 5 ml volume of Solvable® tissue solubilizer overnight at 50° C. and ^33P levels determined by scintillation counting. Sodium-dependent uptake of ^33P was calculated by determining the difference in uptake between rings incubated in the presence and absence of Na^+ in the Hepes-Buffered Ringer's solution. Results are reported as the percentage inhibition of phosphate and glucose uptake, respectively.

Compound	% Glucose Transport Inhibition
O=C(NCc1ccccc1OC(F)(F)F)c1cc(Br)ccc1NS(=O)(=O)c1ccc(Cl)cc1 [Example 72, 5-Bromo-2-(4-chloro-benzenesulfonylamino)-N-(2-trifluoromethoxy-benzyl)-benzamide]	6%
COc1ccccc1CNC(=O)c1cc(Br)ccc1NS(=O)(=O)c1ccc(C(F)(F)F)cc1[N+](=O)[O-] [Example 80, 5-Bromo-N-(2-methoxy-benzyl)-2-(4-trifluoromethyl-2-nitro-benzenesulfonylamino)-benzamide]	39%
O=C(Nc1ccc(Br)cc1)c1cccc(C(F)(F)F)c1 [Example 81, N-(4-Bromo-phenyl)-3-trifluoromethyl-benzamide]	13%

test system: phosphate uptake by rabbit intestinal Brush Border Membrane Vesicles (BBMV); experiment: 33PO4 uptake in rabbit intestinal BBMV (HTS), phosphate transporter inhibition in vitro; format: biochemical; settings: Table 10, phosphate uptake, read-out: IC50
Procedure, shortened: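 BBMV from duodenal mucosa of male New Zealand White rabbits, diluted to about 0.5-2.0 mg/mL protein. Uptake buffers carried 33PO4 at 200,000 CPM/19 μL. Controls: Na uptake buffer (max), plus 100 μM KH2PO4 pH 7.4 (mid), K uptake buffer (min).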

Compound	IC50
CCOP(=O)(OCC)c1cc(Br)ccc1NC(=O)c1ccc(OC(F)(F)F)cc1 [Compound 259]	101 to 500 µM
CCOP(=O)(OCC)c1cc(Br)ccc1NC(=O)c1ccc(F)cc1F [Compound 260]	101 to 500 µM
CCOP(=O)(OCC)c1cc(Br)ccc1NC(=O)c1cc(F)c(Cl)cc1Cl [Compound 262]	101 to 500 µM
CCOP(=O)(OCC)c1cc(Br)ccc1NC(=O)c1cc(C(F)(F)F)ccc1C(F)(F)F [Compound 264]	101 to 500 µM
CCOP(=O)(OCC)c1cc(Br)ccc1NC(=O)c1cccc2ccccc12 [Compound 265]	501 to 1000 µM
CCOP(=O)(OCC)c1cc(Br)ccc1NC(=O)c1ccc(Cl)c(Cl)c1 [Compound 267]	501 to 1000 µM
CCOP(=O)(OCC)c1cc(Br)ccc1NC(=O)c1c(Cl)cc(Cl)cc1Cl [Compound 270]	> 1500 µM
CCOP(=O)(OCC)c1cc(Br)ccc1NC(=O)c1ccc(OC(F)(F)F)cc1 [Compound 272]	> 1500 µM

Further lines, results first:

IC50	Compound
101 to 500 µM	O=C(Nc1cc(C(F)(F)F)ccc1C(F)(F)F)c1cc(Br)cc(Br)c1O [Compound 256]
101 to 500 µM	COc1ccc(NC(=O)c2cc3ccc4c5ccccc5[nH]c4c3cc2O)cc1 [Compound 257]
101 to 500 µM	O=C(Nc1ccc(Oc2ccc(Cl)c3ccccc23)c(Cl)c1)c1cc(Cl)cc(Cl)c1O [Compound 258]
101 to 500 µM	O=C(Nc1ccc(Br)cc1C(=O)O)c1ccc(Cl)c([N+](=O)[O-])c1 [Compound 261]
101 to 500 µM	O=C(Nc1ccc(Br)cc1)c1cc(Br)cc(Br)c1OCCP(=O)(O)O [Compound 263]
501 to 1000 µM	O=C(Nc1ccc(Br)cc1)c1cc(Br)cc(Br)c1 [Compound 266]
> 1500 µM	O=C(Nc1ccc(Br)cc1P(=O)(O)O)c1ccc(OC(F)(F)F)cc1 [Compound 268]
> 1500 µM	O=C(Nc1ccccc1)c1ccccc1P(=O)(O)O [Compound 269]
> 1500 µM	O=C(Nc1ccc(Br)cc1I)c1ccc(OC(F)(F)F)cc1 [Compound 271]

same assay, conditions: Table 11, phosphate uptake, read-out: IC50

IC50	Compound
501 to 1000 µM	O=C(CCc1ccc(O)cc1)c1c(O)cc(O)cc1O [Compound 273]
501 to 1000 µM	O=C(/C=C/c1ccco1)c1cccc(O)c1 [Compound 274]
501 to 1000 µM	COc1cccc(C(=O)/C=C/c2ccco2)c1 [Compound 275]
501 to 1000 µM	O=C(/C=C/c1ccco1)c1cccc(Oc2ccccc2)c1 [Compound 276]
501 to 1000 µM	O=C(/C=C/c1cccc(F)c1)c1cccc(O)c1 [Compound 277]
> 1500 µM	COc1cccc(C(=O)/C=C/c2cccc(F)c2)c1 [Compound 278]
> 1500 µM	O=C(/C=C/c1cccc(F)c1)c1cccc(Oc2ccccc2)c1 [Compound 279]

same assay, conditions: Table 12, 100 μM compound

Compound	% Inhib. at 100 μM
O=S(=O)(Cc1ccc(Cl)cc1Cl)c1cc(C(F)(F)F)cc(C(F)(F)F)c1 [Compound 280]	57%
Cc1ccc(S(=O)(=O)Cc2c(Cl)cccc2Cl)cc1 [Compound 281]	53%
Cc1cccc(CS(=O)(=O)c2ccc(Cl)cc2)c1F [Compound 282]	53%
O=S(=O)(Cc1c(Cl)cccc1Cl)c1cc(C(F)(F)F)cc(C(F)(F)F)c1 [Compound 283]	51%
Cc1cc(S(=O)(=O)Cc2ccc(Cl)c(Cl)c2)c(Cl)cc1Cl [Compound 284]	51%
O=[N+]([O-])c1ccc(CS(=O)(=O)c2ccc(F)cc2F)c(Cl)c1 [Compound 285]	44%
O=S(=O)(Cc1c(F)cccc1Cl)c1ccc(Cl)cc1 [Compound 286]	39%
O=S(=O)(Cc1ccccc1)c1ccccc1 [Compound 287]	34%
O=S(=O)(Cc1ccc(Br)cc1F)c1ccc(Cl)cc1 [Compound 288]	31%
O=S(=O)(Cc1ccc(C(F)(F)F)cc1)c1ccc(Cl)cc1 [Compound 291]	0%

same assay, conditions: Table 13, phosphate uptake, read-out: IC50

Compound	IC50
O=[N+]([O-])c1ccc(S(=O)(=O)Nc2ccc(/C=C/c3ccc(NS(=O)(=O)c4ccc([N+](=O)[O-])cc4)cc3S(=O)(=O)O)c(S(=O)(=O)O)c2)cc1 [Compound 294]	101 to 500 µM
O=[N+]([O-])c1cccc(S(=O)(=O)Nc2ccc(/C=C/c3ccc(NS(=O)(=O)c4cccc([N+](=O)[O-])c4)cc3S(=O)(=O)O)c(S(=O)(=O)O)c2)c1 [Compound 297]	101 to 500 µM
O=S(=O)(O)c1cc(Nc2nc(Nc3ccccc3)nc(N(CCO)CCO)n2)ccc1/C=C/c1ccc(Nc2nc(Nc3ccccc3)nc(N(CCO)CCO)n2)cc1S(=O)(=O)O [Compound 302]	501 to 1000 µM
O=[N+]([O-])c1ccc(S(=O)(=O)Nc2ccc(/C=C/c3ccc(NS(=O)(=O)c4ccc([N+](=O)[O-])cc4)cc3S(=O)(=O)O)c(S(=O)(=O)O)c2)cc1 [Compound 303]	501 to 1000 µM
O=[N+]([O-])c1ccc(/C=C/c2ccc([N+](=O)[O-])cc2S(=O)(=O)O)c(S(=O)(=O)O)c1 [Compound 305]	1000 to 1500 µM
Cc1ccc(S(=O)(=O)Nc2ccc(/C=C/c3ccc(NS(=O)(=O)c4ccc(C)c([N+](=O)[O-])c4)cc3S(=O)(=O)O)c(S(=O)(=O)O)c2)cc1[N+](=O)[O-] [Compound 309]	> 1500 µM

The remaining lines, values ahead:

IC50	Compound
< 50 µM	O=S(=O)(O)c1cc(/N=N/c2ccc(O)cc2)ccc1/C=C/c1ccc(/N=N/c2ccc(O)cc2)cc1S(=O)(=O)O [Compound 292]
51 to 100 µM	O=S(=O)(O)c1cc(NS(=O)(=O)c2ccc(-c3ccccc3)cc2)ccc1/C=C/c1ccc(NS(=O)(=O)c2ccc(-c3ccccc3)cc2)cc1S(=O)(=O)O [Compound 293]
101 to 500 µM	O=S(=O)(O)c1cc(NS(=O)(=O)c2cccc(C(F)(F)F)c2)ccc1/C=C/c1ccc(NS(=O)(=O)c2cccc(C(F)(F)F)c2)cc1S(=O)(=O)O [Compound 296]
501 to 1000 µM	O=S(=O)(O)c1cc(NS(=O)(=O)c2ccc(-c3ccccc3)cc2)ccc1/C=C/c1ccc(NS(=O)(=O)c2ccc(-c3ccccc3)cc2)cc1S(=O)(=O)O [Compound 298]
501 to 1000 µM	O=S(=O)(O)c1cc(NS(=O)(=O)c2cccc3ccccc23)ccc1/C=C/c1ccc(NS(=O)(=O)c2cccc3ccccc23)cc1S(=O)(=O)O [Compound 299]
501 to 1000 µM	O=C(Nc1ccc(/C=C/c2ccc(NC(=O)c3ccccc3)cc2S(=O)(=O)O)c(S(=O)(=O)O)c1)c1ccccc1 [Compound 300]
501 to 1000 µM	O=S(=O)(O)c1cc(NS(=O)(=O)c2cccc(Cl)c2)ccc1/C=C/c1ccc(NS(=O)(=O)c2cccc(Cl)c2)cc1S(=O)(=O)O [Compound 301]
> 1500 µM	Oc1ccc(/C=C/c2ccc(O)cc2)cc1 [Compound 306]
> 1500 µM	O=S(=O)(O)c1cc(N=C=S)ccc1/C=C/c1ccc(N=C=S)cc1S(=O)(=O)O [Compound 307]
> 1500 µM	Nc1ccc(/C=C/c2ccc(N)cc2)cc1 [Compound 308]
> 1500 µM	O=S(=O)(O)c1cc(NS(=O)(=O)c2cccc3cccnc23)ccc1/C=C/c1ccc(NS(=O)(=O)c2cccc3cccnc23)cc1S(=O)(=O)O [Compound 311]

test system: sodium-dependent phosphate uptake into isolated rabbit intestinal rings; experiment: Ex vivo 33P uptake into isolated rabbit intestinal rings; format: cell-based; design: concentration or dose not given beside the values; settings: Table 14, 15-minute incubation
Method: For the ex vivo assay, ^33P uptake into isolated rabbit intestinal rings was measured using a modification of the method described by Crane and Mandelstam [Robert K. Crane and Paul Mandelstam “The active transport of sugars by various preparations of hamster intestine” Biochim. Biophys. Acta 45: 460-476, 1960; the contents of which are incorporated herein by reference]. Male New Zealand rabbits 2-3 kg in weight were aeuthinized by an i.v. injection of Fatal Pluse®. A midline laparotomy was performed and the duodenum from the pyloric junction to the ligament of Trietz isolated and excised. Segments of bowel were everted, cut into 2-4 mm ring-like pieces and placed into a modified Hepes-Buffered Ringer's solution in which Na^+ had been iso-osmotically replaced with N-methyl-D-glucamine. To measure phosphate uptake, six rings were incubated in a 50 ml conical tube containing a 10 ml volume of Ringer's solution, with or without Na^+, bubbled with 100% O2 and maintained at 37° C. 0.5 uCi/ml ^33P was then incubated with the rings for a 15-minute period, the tissue harvested, rinsed, blotted dry and weighed. Tissues were then solublized by digesting them in a 5 ml volume of Solvable® tissue solubilizer overnight at 50° C. and ^33P levels determined by scintillation counting. Sodium-dependent uptake of ^33P was calculated by determining the difference in uptake between rings incubated in the presence and absence of Na^+ in the Hepes-Buffered Ringer's solution. Results are reported as the percentage inhibition of phosphate and glucose uptake, respectively.

Compound	% Phosphate Transport Inhibition
O=C(NCc1ccccc1OC(F)(F)F)c1cc(Br)ccc1NS(=O)(=O)c1ccc(Cl)cc1 [Example 72, 5-Bromo-2-(4-chloro-benzenesulfonylamino)-N-(2-trifluoromethoxy-benzyl)-benzamide]	24%
COc1ccccc1CNC(=O)c1cc(Br)ccc1NS(=O)(=O)c1ccc(C(F)(F)F)cc1[N+](=O)[O-] [Example 80, 5-Bromo-N-(2-methoxy-benzyl)-2-(4-trifluoromethyl-2-nitro-benzenesulfonylamino)-benzamide]	43%
O=C(Nc1ccc(Br)cc1)c1cccc(C(F)(F)F)c1 [Example 81, N-(4-Bromo-phenyl)-3-trifluoromethyl-benzamide]	22%
